Some results are limits rather than exact numbers.

Results on 53 compounds are retold here after patent US8501713B2, “Drug combinations for the treatment of duchenne muscular dystrophy” (Summit Corporation PLC, priority 2007, dated 2013).

The first assay concerns Utrophin A promoter linked to a luciferase reporter gene. The experiment in a line: Luciferase reporter assay (murine H2K cells). It counts as cell-based. Particulars: Mus musculus, H2K mdx, luciferase level relative to control; H2K/mdx/Utro A reporter cells; compound 10 μM final concentration; read-out: Activity. In outline:
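Compound at 10 μM final was applied for 48 hrs to plated H2K mdx myoblasts (33° C, 10% CO2, interferon-containing medium) bearing a luciferase gene under the utrophin A promoter. Luminescence from lysed cells served as read-out.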
On the technique in general: Reporter assays use an easily measured gene product as a stand-in for the process of interest.
In the case of `Cc1ccc(C(=O)Nc2ccc3oc(-c4ccc(Cl)cc4)nc3c2)cc1` [Example 90, N-(2-(4-chlorophenyl)benzo[d]oxazol-5-yl)-4-methylbenzamide], the activity at 10 µM is < 200%.
Regarding `Nc1ccc(C(=O)Nc2ccc(-c3nc4cc(Br)ccc4o3)cc2)cc1` [Example 337, 4-amino-N-(4-(5-bromobenzo[d]oxazol-2-yl)phenyl)benzamide], the activity at 10 µM is < 200%.
Turning to `CC(c1ccccc1)c1nc2cc(N)ccc2o1` (centres unmarked) [Example 308, 2-(1-phenylethyl)benzo[d]oxazol-5-amine], the activity at 10 µM is < 200%.
With `Nc1cccc(-c2ccc3oc(-c4ccc(Cl)cc4)nc3c2)c1` [Example 328, 3-(2-(4-chlorophenyl)benzo[d]oxazol-5-yl)aniline], the activity at 10 µM was > 401%.
Turning to `CCCS(=O)(=O)Nc1ccc2oc(-c3ccc(Cl)cc3)nc2c1` [Example 260, N-(2-(4-chlorophenyl)benzo[d]oxazol-5-yl)propane-1-sulfonamide], the activity at 10 µM is < 200%.
Take `O=[N+]([O-])c1ccc2nc(-c3ccc(Cl)c(Cl)c3)oc2c1` [Example 324, 2-(3,4-dichlorophenyl)-6-nitrobenzo[d]oxazole]: the activity at 10 µM lay within 201 to 300%.
As to `O=C(Nc1ccc2oc(-c3ccc(C(F)(F)F)cc3)nc2c1)c1ccncc1` [Example 122, N-(2-(4-(trifluoromethyl)phenyl)benzo[d]oxazol-5-yl)isonicotinamide], the activity at 10 µM was < 200%.
The same measure, in the same setting: the value for `Clc1ccc(-c2nc3cc(-c4ccccc4)ccc3o2)cc1` [Example 162, 2-(4-chlorophenyl)-5-phenylbenzo[d]oxazole] was < 200%; that for `O=C(Nc1ccc2nc(-c3ccc(Cl)cc3)oc2c1)C1CC1` [Example 353, N-(2-(4-chlorophenyl)benzo[d]oxazol-6-yl)cyclopropanecarboxamide] was 201 to 300%.
On to `CC(=O)Nc1ccc(-c2nc3ccc(Cl)cc3o2)cc1` [Example 332, N-(4-(6-chlorobenzo[d]oxazol-2-yl)phenyl)acetamide], for which the activity at 10 µM is 301 to 400%.
Same read-out and setting: the same measure for `CCN(CC)c1ccc(-c2nc3cc(C(=O)O)ccc3o2)cc1` [Example 152, 2-(4-(diethylamino)phenyl)benzo[d]oxazole-5-carboxylic acid]: < 200%.
Turning to `CC(C)(C)C(=O)Nc1ccc2oc(-c3ccc(Cl)cc3)nc2c1` [Example 210, N-(2-(4-chlorophenyl)benzo[d]oxazol-5-yl)pivalamide], the activity at 10 µM fell in the range of 201 to 300%.
For the compound `CCN(CC)c1ccc(-c2nc3cc(NC(=O)c4ccncc4)ccc3o2)cc1` [Example 61, N-(2-(4-(diethylamino)phenyl)benzo[d]oxazol-5-yl)isonicotinamide], the activity at 10 µM is < 200%.
The same measure, in the same setting: the value for `CCC(=O)Nc1ccc2oc(-c3ccc(N(CC)CC)cc3)nc2c1` [Example 75, N-(2-(4-(diethylamino)phenyl)benzo[d]oxazol-5-yl)propionamide] was 201 to 300%; that for `CC(C)C(=O)Nc1ccc2sc(-c3cccc(Cl)c3Cl)nc2c1` [Example 303, N-(2-(2,3-dichlorophenyl)benzo[d]thiazol-5-yl)isobutyramide] was 301 to 400%.
`Clc1ccc2oc(-c3ccccc3)nc2c1` [Example 111, 5-chloro-2-phenylbenzo[d]oxazole]: the activity at 10 µM lay in the range of 201 to 300%.
In the case of `Nc1ccc(-c2nc3cc(-c4ccc(Cl)cc4)ccc3o2)cc1` [Example 356, 4-(5-(4-chlorophenyl)benzo[d]oxazol-2-yl)aniline], the activity at 10 µM was < 200%.
The same measure, in the same setting: the same measure for `CC(C)(C)c1ccc2oc(-c3ccc4ccccc4c3)nc2c1` [Example 451, 5-tert-Butyl-2-(naphthalen-2-yl)benzo[d]oxazole]: < 200%; for `CCN(CC)c1ccc(-c2nc3cc(NC(=O)c4ccc(OC)cc4)ccc3o2)cc1` [Example 65, N-(2-(4-(diethylamino)phenyl)benzo[d]oxazol-5-yl)-4-methoxybenzamide]: < 200%.
Consider `Nc1ccc2nc(-c3ccc(Cl)c(Cl)c3)oc2c1` [Example 369, 2-(3,4-dichlorophenyl)benzo[d]oxazol-6-amine], for which the activity at 10 µM was > 401%.
Consider `Fc1cc2nc(-c3ccc4ccccc4c3)oc2cc1F` [Example 452, 5,6-Difluoro-2-(naphthalen-2-yl)benzo[d]oxazole], for which the activity at 10 µM is > 401%.
In the case of `CCN(CC)c1ccc(-c2nc3cc(S(=O)(=O)CC)ccc3o2)cc1` [Example 144, N,N-diethyl-4-(5-(ethylsulfonyl)benzo[d]oxazol-2-yl)aniline], the activity at 10 µM is < 200%.
Consider `Cc1ccc(-c2nc3cc(NC(=O)CCC(F)(F)F)ccc3o2)cc1` [Example 233, 4,4,4-trifluoro-N-(2-p-tolylbenzo[d]oxazol-5-yl)butanamide], for which the activity at 10 µM is < 200%.
As to `CC(C)CN(CC(C)C)c1ccc2oc(-c3ccc(Cl)cc3)nc2c1` [Example 335, 2-(4-chlorophenyl)-N,N-diisobutylbenzo[d]oxazol-5-amine], the activity at 10 µM is < 200%.
As for `O=[N+]([O-])c1ccc2nc(-c3ccc(Cl)cc3)oc2c1` [Example 191, 2-(4-chlorophenyl)-6-nitrobenzo[d]oxazole], the activity at 10 µM fell in the range of 201 to 300%.
For `Cc1ccc(-c2nc3cc(NC(=O)C(F)(F)F)ccc3o2)cc1` [Example 209, 2,2,2-trifluoro-N-(2-p-tolylbenzo[d]oxazol-5-yl)acetamide], the activity at 10 µM fell in the range of 201 to 300%.
Take `O=C(Nc1ccc2oc(-c3cccnc3)nc2c1)c1ccc(Cl)cc1` [Example 40, 4-chloro-N-(2-(pyridin-3-yl)benzo[d]oxazol-5-yl)benzamide]: the activity at 10 µM was < 200%.
Consider `Cc1ccc(-c2nc3cc(NCC(C)C)ccc3o2)cc1` [Example 186, N-isobutyl-2-p-tolylbenzo[d]oxazol-5-amine], for which the activity at 10 µM lay in the range of 301 to 400%.
As for `CC(C)C(=O)Nc1cc2oc(-c3ccc4c(c3)OCO4)nc2cc1Cl` [Example 398, N-(2-(benzo[d][1,3]dioxol-5-yl)-5-chlorobenzo[d]oxazol-6-yl)isobutyramide], the activity at 10 µM was < 200%.
`Cc1cc2nc(-c3ccc(N)cc3O)[nH]c2cc1C` [Example 104, 5-amino-2-(5,6-dimethyl-1H-benzo[d]imidazol-2-yl)phenol]: the activity at 10 µM fell in the range of 201 to 300%.
On to `Nc1cc2oc(-c3ccc4c(c3)OCO4)nc2cc1Cl` [Example 397, 2-(benzo[d][1,3]dioxol-5-yl)-5-chlorobenzo[d]oxazol-6-amine], for which the activity at 10 µM was in the range of 301 to 400%.
Same read-out and setting: the value for `NS(=O)(=O)c1ccc2oc(-c3ccc(Cl)cc3)nc2c1` [Example 325, 2-(4-chlorophenyl)benzo[d]oxazole-5-sulfonamide] was > 401%; that for `O=[N+]([O-])c1ccc2oc(Cc3ccccc3)nc2c1` [Example 214, 2-benzyl-5-nitrobenzo[d]oxazole] was < 200%; that for `O=[N+]([O-])c1ccc2oc(-c3ccc4c(c3)OCO4)nc2c1` [Example 286, 2-(benzo[d][1,3]dioxol-5-yl)-5-nitrobenzo[d]oxazole] was 301 to 400%.
Take `CC(C)C(=O)Nc1ccc2oc(-c3ccc(OC(F)(F)F)cc3)nc2c1` [Example 355, N-(2-(4-(trifluoromethoxy)phenyl)benzo[d]oxazol-5-yl)isobutyramide]: the activity at 10 µM is < 200%.

The same assay, now with this note: luciferase reporter assay in murine H2K cells; classified relative to control.
In the case of `CC(=O)Nc1ccc2[nH]c(-c3ccco3)nc2c1` [Example 534], the Activity entry is listed as “+ (Up to 200% relative to control)”.
With `CN(C)c1ccc(-c2nc3cc(N)ccc3o2)cc1` [Example 491], the Activity entry was “++ (Between 201% and 300% relative to control)”.
In the case of `COc1ccc(CSc2nc3ccccc3[nH]2)cc1` [Example 640], the Activity result was “+++ (Between 301% and 400% relative to control)”.
Still for that read-out and setting: the same measure for `Nc1ccc(-c2nc3ccccc3s2)cc1` [Example 601]: “+++ (Between 301% and 400% relative to control)”; for `Cc1ccc(NC(=O)C(=O)c2c[nH]c3ccccc23)c(Br)c1` [Example 663]: “+++ (Between 301% and 400% relative to control)”.
In the case of `O=C(Nc1nc2ccccc2s1)c1ccccc1Br` [Example 616], the Activity result is listed as “++++ (Above 401% relative to control)”.
Regarding `C(=C\c1nc2ccccc2[nH]1)/c1ccccc1` [Example 547], the Activity result was “+++ (Between 301% and 400% relative to control)”.
Take `Cc1nc2ccc(NC(=O)NC(=O)c3ccccc3Cl)cc2o1` [Example 468]: the Activity result was “+ (Up to 200% relative to control)”.
On the same count and under the same terms, the value for `c1csc(-c2nc3cc4ccccc4cc3[nH]2)c1` [Example 561] was “+++ (Between 301% and 400% relative to control)”; that for `COc1ccc(-c2nc3ccccc3s2)cc1N` [Example 597] was “+++ (Between 301% and 400% relative to control)”.
For the compound `Cc1cc(C)c2oc(-c3ccc(Cl)c(N)c3)nc2c1` [Example 627], the Activity result was “++++ (Above 401% relative to control)”.
The same measure, in the same setting: the same measure for `c1cc(NCc2ccncc2)cc(-c2nc3ccccc3s2)c1` [Example 647]: “+++ (Between 301% and 400% relative to control)”; for `Cc1cc(C)c2nc(-c3ccc(N)cc3)oc2c1` [Example 590]: “++++ (Above 401% relative to control)”.
Still for that read-out and setting: the value for `Cc1ccc(OCc2nc3ccccc3[nH]2)cc1` [Example 531] was “++ (Between 201% and 300% relative to control)”.
Take `Nc1ccc2[nH]c(-c3ccc(Cl)cc3)nc2c1` [Example 560]: the Activity entry is “+++ (Between 301% and 400% relative to control)”.
The same measure, in the same setting: the same measure for `Cc1ccc2sc(-c3ccc(NC(=O)c4cc(-n5cnnc5)ccc4Cl)cc3)nc2c1` [Example 688]: “++ (Between 201% and 300% relative to control)”; for `O=C(Nc1ccccc1-c1nc2ccccc2[nH]1)c1ccc(S(=O)(=O)N2CCCC2)cc1` [Example 511]: “+ (Up to 200% relative to control)”; for `CCCCc1nc2cc(S(=O)(=O)CC)ccc2o1` [Example 570]: “+ (Up to 200% relative to control)”.
